In US20230085307A1, “PYRIDAZINONE COMPOUND AND HERBICIDE” (NISSAN CHEMICAL CORPORATION, priority 2019, published 2023):

How the values were obtained:
rice flat sedge = assay: Test Example 3: herbicidal effect by foliage application, Wagner pot (Table 18, symbol E); type: in vivo, rice flat sedge (Cyperus iria); conditions: for herbicidal effect on rice flat sedge (E): 320 g/ha
Procedure, shortened: (§1)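 Plants were sown in alluvial soil held under 0.1–0.5 cm standing water and grown 14 days in a greenhouse at 25–30 °C. An emulsifiable formulation, water-diluted to the set dose, was then sprayed onto the foliage, and effects were scored three weeks later using previously defined criteria.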

Japanese bulrush [1] = assay: Test Example 1: herbicidal activity, application before weed generation under submerged conditions (Table 16, symbol B); type: in vivo, Japanese bulrush (Schoenoplectus juncoides); conditions: amount of applied herbicide 320 g/ha
Procedure, shortened: (§2)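 Alluvial soil was flooded to 4 cm depth, weed seeds were sown mixed and 2.5-leaf rice seedlings were transplanted. On sowing day, the compound's emulsion, diluted in water to a set dose, was applied to the water surface. Plants grew at 25–30 °C and were scored 0–5 after three weeks.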

southern crabgrass [2] = assay: Test Example 5: herbicidal effect by foliage application, plastic box (Table 20, symbol F); type: in vivo, southern crabgrass (Digitaria ciliaris); conditions: foliage application, 320 g/ha, three weeks after application
Procedure, shortened: (§3)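 Plants sown in sterilized diluvial soil and grown 14 days in a greenhouse at 25° C to 30° C, then sprayed on the foliage with the compound's emulsion diluted in water to a predetermined herbicide amount. Injury to weeds and crops scored three weeks after application on a visual rating scale.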

late watergrass [3] = assay: Test Example 2: herbicidal activity, application during weed generation under submerged conditions (Table 17, symbol A); type: in vivo, late watergrass (Echinochloa oryzicola); conditions: AAH 320 g/ha; application during weed generation, submerged conditions
Procedure, shortened: (§4)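 Steps: fill Wagner pots with alluvial soil; add water to give 4 cm depth; sow the species mixed; grow under glass at 25–30° C.; at 1–2 leaves apply water-diluted emulsion formulation to the water surface at a fixed herbicide amount; score after 3 weeks.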

barnyard grass [4] = assay: Test Example 3: herbicidal effect by foliage application, Wagner pot (Table 18, symbol H); type: in vivo, barnyard grass (Echinochloa crus-galli); conditions: for herbicidal effect on barnyard grass (H): 320 g/ha
Procedure, shortened: as §1

Japanese bulrush [5] = assay: Test Example 2: herbicidal activity, application during weed generation under submerged conditions (Table 17, symbol B); type: in vivo, Japanese bulrush (Schoenoplectus juncoides); conditions: AAH 320 g/ha; application during weed generation, submerged conditions
Procedure, shortened: as §4

late watergrass [6] = assay: Test Example 1: herbicidal activity, application before weed generation under submerged conditions (Table 16, symbol A); type: in vivo, late watergrass (Echinochloa oryzicola); conditions: amount of applied herbicide 320 g/ha
Procedure, shortened: as §2

green foxtail [7] = assay: Test Example 5: herbicidal effect by foliage application, plastic box (Table 20, symbol G); type: in vivo, green foxtail (Setaria viridis); conditions: foliage application, 320 g/ha, three weeks after application
Procedure, shortened: as §3

lambsquarters [8] = assay: Test Example 4: herbicidal effect by soil treatment (Table 19, symbol O); type: in vivo, lambsquarters (Chenopodium album); conditions: amount of applied herbicide 320 g/ha
Procedure, shortened: (§5)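 Three weeks of greenhouse growth at 25° C. to 30° C. followed a uniform surface spray of water-diluted emulsion at a predetermined herbicide amount. Seeds had been sown beforehand under about 1.5 cm of sterilized diluvial soil. Grading followed criteria set out in an earlier test.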

green foxtail [9] = assay: Test Example 4: herbicidal effect by soil treatment (Table 19, symbol G); type: in vivo, green foxtail (Setaria viridis); conditions: amount of applied herbicide 320 g/ha
Procedure, shortened: as §5

redroot pigweed [10] = assay: Test Example 4: herbicidal effect by soil treatment (Table 19, symbol N); type: in vivo, redroot pigweed (Amaranthus retroflexus); conditions: amount of applied herbicide 320 g/ha
Procedure, shortened: as §5

lambsquarters [11] = assay: Test Example 5: herbicidal effect by foliage application, plastic box (Table 20, symbol O); type: in vivo, lambsquarters (Chenopodium album); conditions: foliage application, 320 g/ha, three weeks after application
Procedure, shortened: as §3

velvetleaf [12] = assay: Test Example 4: herbicidal effect by soil treatment (Table 19, symbol M); type: in vivo, velvetleaf (Abutilon theophrasti); conditions: amount of applied herbicide 320 g/ha
Procedure, shortened: as §5

velvetleaf [13] = assay: Test Example 5: herbicidal effect by foliage application, plastic box (Table 20, symbol M); type: in vivo, velvetleaf (Abutilon theophrasti); conditions: foliage application, 320 g/ha, three weeks after application
Procedure, shortened: as §3

Chinese sprangletop = assay: Test Example 3: herbicidal effect by foliage application, Wagner pot (Table 18, symbol D); type: in vivo, chinese sprangletop (Leptochloa chinensis); conditions: for herbicidal effect on Chinese sprangletop (D): 320 g/ha
Procedure, shortened: as §1

oval-leafed pondweed [14] = assay: Test Example 1: herbicidal activity, application before weed generation under submerged conditions (Table 16, symbol C); type: in vivo, oval-leafed pondweed (Monochoria vaginalis); conditions: amount of applied herbicide 320 g/ha
Procedure, shortened: as §2

redroot pigweed [15] = assay: Test Example 5: herbicidal effect by foliage application, plastic box (Table 20, symbol N); type: in vivo, redroot pigweed (Amaranthus retroflexus); conditions: foliage application, 320 g/ha, three weeks after application
Procedure, shortened: as §3

southern crabgrass [16] = assay: Test Example 4: herbicidal effect by soil treatment (Table 19, symbol F); type: in vivo, southern crabgrass (Digitaria ciliaris); conditions: amount of applied herbicide 320 g/ha
Procedure, shortened: as §5

oval-leafed pondweed [17] = assay: Test Example 2: herbicidal activity, application during weed generation under submerged conditions (Table 17, symbol C); type: in vivo, oval-leafed pondweed (Monochoria vaginalis); conditions: AAH 320 g/ha; application during weed generation, submerged conditions
Procedure, shortened: as §4

barnyard grass [18] = assay: Test Example 4: herbicidal effect by soil treatment (Table 19, symbol H); type: in vivo, barnyard grass (Echinochloa crus-galli); conditions: amount of applied herbicide 320 g/ha
Procedure, shortened: as §5

Italian ryegrass = assay: Test Example 5: herbicidal effect by foliage application, plastic box (Table 20, symbol K); type: in vivo, Italian ryegrass (Lolium multiflorum); conditions: foliage application, 320 g/ha, three weeks after application
Procedure, shortened: as §3

persian speedwell = assay: Test Example 5: herbicidal effect by foliage application, plastic box (Table 20, symbol R); type: in vivo, Persian speedwell (Veronica persica); conditions: foliage application, 320 g/ha, three weeks after application
Procedure, shortened: as §3

barnyard grass [19] = assay: Test Example 5: herbicidal effect by foliage application, plastic box (Table 20, symbol H); type: in vivo, barnyard grass (Echinochloa crus-galli); conditions: foliage application, 320 g/ha, three weeks after application
Procedure, shortened: as §3

windgrass = assay: Test Example 5: herbicidal effect by foliage application, plastic box (Table 20, symbol L); type: in vivo, windgrass (Apera spica-venti); conditions: foliage application, 320 g/ha, three weeks after application
Procedure, shortened: as §3

wild oat = assay: Test Example 5: herbicidal effect by foliage application, plastic box (Table 20, symbol I); type: in vivo, wild oat (Avena fatua); conditions: foliage application, 320 g/ha, three weeks after application
Procedure, shortened: as §3

blackgrass = assay: Test Example 5: herbicidal effect by foliage application, plastic box (Table 20, symbol J); type: in vivo, blackgrass (Alopecurus myosuroides); conditions: foliage application, 320 g/ha, three weeks after application
Procedure, shortened: as §3

[20] = amount of applied herbicide 320 g/ha

SMILES	Herbicidal effect, B: Japanese bulrush (Japanese bulrush [1])	herbicidal effect rating, A: late watergrass (late watergrass [3])	herbicidal effect rating, B: Japanese bulrush (Japanese bulrush [5])	Herbicidal effect, A: late watergrass (late watergrass [6])	Herbicidal effect, C: oval-leafed pondweed (oval-leafed pondweed [14])	herbicidal effect rating, C: oval-leafed pondweed (oval-leafed pondweed [17])	herbicidal effect on rice flat sedge (E) (rice flat sedge)	herbicidal effect on Italian ryegrass (K) (Italian ryegrass)	herbicidal effect on southern crabgrass (F) (southern crabgrass [2])	herbicidal effect on barnyard grass (H) (barnyard grass [4])	herbicidal effect on persian speedwell (R) (persian speedwell)	herbicidal effect on barnyard grass (H) (barnyard grass [19])	herbicidal effect on windgrass (L) (windgrass)	herbicidal effect on green foxtail (G) (green foxtail [7])	herbicidal effect on wild oat (I) (wild oat)	herbicidal effect on lambsquarters (O) (lambsquarters [11])	herbicidal effect on velvetleaf (M) (velvetleaf [13])	herbicidal effect on Chinese sprangletop (D) (Chinese sprangletop)	herbicidal effect on blackgrass (J) (blackgrass)	other results
COc1ccc2sc(-c3ccc(Cl)cc3)c(-c3c(O)c(C)nn(C)c3=O)c2c1 [2-450]	3 (Herbicidal rate of 40% or more and less than 70%)	3 (Herbicidal rate of 40% or more and less than 70%)	2 (Herbicidal rate of 20% or more and less than 40%)	2 (Herbicidal rate of 20% or more and less than 40%)	0 (Herbicidal rate of 5% or less (almost no effect))	0 (Herbicidal rate of 5% or less (almost no effect))	–	–	–	–	–	–	–	–	–	–	–	–	–	herbicidal effect on E: rice flat sedge (rice flat sedge; [20]): 5 (Herbicidal rate of 90% or more (almost completely withered)); F: southern crabgrass, herbicidal effect grade (southern crabgrass [2]): 0 (Herbicidal rate of 5% or less (almost no effect)); herbicidal effect on H: barnyard grass (barnyard grass [4]; [20]): 3 (Herbicidal rate of 40% or more and less than 70%); G: green foxtail, herbicidal effect grade (green foxtail [7]): 0 (Herbicidal rate of 5% or less (almost no effect)); herbicidal effect, O: lambsquarters (lambsquarters [8]): 2 (Herbicidal rate of 20% or more and less than 40%); herbicidal effect, G: green foxtail (green foxtail [9]): 0 (Herbicidal rate of 5% or less (almost no effect)); herbicidal effect, N: redroot pigweed (redroot pigweed [10]): 3 (Herbicidal rate of 40% or more and less than 70%); O: lambsquarters, herbicidal effect grade (lambsquarters [11]): 5 (Herbicidal rate of 90% or more (almost completely withered)); herbicidal effect, M: velvetleaf (velvetleaf [12]): 0 (Herbicidal rate of 5% or less (almost no effect)); M: velvetleaf, herbicidal effect grade (velvetleaf [13]): 5 (Herbicidal rate of 90% or more (almost completely withered)); herbicidal effect on D: Chinese sprangletop (Chinese sprangletop; [20]): 0 (Herbicidal rate of 5% or less (almost no effect)); N: redroot pigweed, herbicidal effect grade (redroot pigweed [15]): 5 (Herbicidal rate of 90% or more (almost completely withered)); herbicidal effect, F: southern crabgrass (southern crabgrass [16]): 0 (Herbicidal rate of 5% or less (almost no effect)); herbicidal effect, H: barnyard grass (barnyard grass [18]): 0 (Herbicidal rate of 5% or less (almost no effect))
CCCC(=O)Oc1c(C)nn(C)c(=O)c1-c1c(-c2ccccc2OC)sc2cc(C)c(C)cc12 [5-091]	3 (Herbicidal rate of 40% or more and less than 70%)	3 (Herbicidal rate of 40% or more and less than 70%)	2 (Herbicidal rate of 20% or more and less than 40%)	3 (Herbicidal rate of 40% or more and less than 70%)	3 (Herbicidal rate of 40% or more and less than 70%)	3 (Herbicidal rate of 40% or more and less than 70%)	3 (Herbicidal rate of 40% or more and less than 70%)	4 (Herbicidal rate of 70% or more and less than 90%)	2 (Herbicidal rate of 20% or more and less than 40%)	4 (Herbicidal rate of 70% or more and less than 90%)	3 (Herbicidal rate of 40% or more and less than 70%)	3 (Herbicidal rate of 40% or more and less than 70%)	4 (Herbicidal rate of 70% or more and less than 90%)	3 (Herbicidal rate of 40% or more and less than 70%)	0 (Herbicidal rate of 5% or less (almost no effect))	3 (Herbicidal rate of 40% or more and less than 70%)	4 (Herbicidal rate of 70% or more and less than 90%)	4 (Herbicidal rate of 70% or more and less than 90%)	4 (Herbicidal rate of 70% or more and less than 90%)	–
CCCC(=O)Oc1c(C)nn(C)c(=O)c1-c1c(-c2ccc(F)cc2OC)sc2cc(C)c(C)cc12 [5-102]	3 (Herbicidal rate of 40% or more and less than 70%)	3 (Herbicidal rate of 40% or more and less than 70%)	3 (Herbicidal rate of 40% or more and less than 70%)	4 (Herbicidal rate of 70% or more and less than 90%)	2 (Herbicidal rate of 20% or more and less than 40%)	2 (Herbicidal rate of 20% or more and less than 40%)	3 (Herbicidal rate of 40% or more and less than 70%)	3 (Herbicidal rate of 40% or more and less than 70%)	1 (Herbicidal rate of 5% or more and less than 20%)	4 (Herbicidal rate of 70% or more and less than 90%)	3 (Herbicidal rate of 40% or more and less than 70%)	1 (Herbicidal rate of 5% or more and less than 20%)	2 (Herbicidal rate of 20% or more and less than 40%)	0 (Herbicidal rate of 5% or less (almost no effect))	0 (Herbicidal rate of 5% or less (almost no effect))	3 (Herbicidal rate of 40% or more and less than 70%)	3 (Herbicidal rate of 40% or more and less than 70%)	4 (Herbicidal rate of 70% or more and less than 90%)	3 (Herbicidal rate of 40% or more and less than 70%)	–
Cc1nn(C)c(=O)c(-c2c(-c3ccc(OC(F)(F)F)cc3)sc3cc(Cl)c(Cl)cc23)c1O [5-107]	0 (Herbicidal rate of 5% or less (almost no effect))	3 (Herbicidal rate of 40% or more and less than 70%)	3 (Herbicidal rate of 40% or more and less than 70%)	3 (Herbicidal rate of 40% or more and less than 70%)	0 (Herbicidal rate of 5% or less (almost no effect))	3 (Herbicidal rate of 40% or more and less than 70%)	0 (Herbicidal rate of 5% or less (almost no effect))	–	2 (Herbicidal rate of 20% or more and less than 40%)	3 (Herbicidal rate of 40% or more and less than 70%)	–	3 (Herbicidal rate of 40% or more and less than 70%)	–	2 (Herbicidal rate of 20% or more and less than 40%)	–	4 (Herbicidal rate of 70% or more and less than 90%)	3 (Herbicidal rate of 40% or more and less than 70%)	0 (Herbicidal rate of 5% or less (almost no effect))	–	–
